Test results reported in ChEMBL document CHEMBL1201862, “PubChem BioAssay data set” (2004).
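Compound exposure: 48 hours, 5 concentrations, 96-well plates. GI50 = concentration required for 50% inhibition of growth.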 Active and inactive are the calls of the source. Cut-off read from the data, not from the text of the source: active = GI50 up to about 1.1 µM and inactive = higher.

Key:
Assay in all cases: NCI-60 cell line screen, 48 h
ACHN = test system: ACHN
DU-145 = test system: DU-145
HCT-15 = test system: HCT-15
CCRF-CEM = test system: CCRF-CEM
CAKI-1 = test system: CAKI-1
HL-60 = test system: HL-60
OVCAR-5 = test system: OVCAR-5
SF-539 = test system: SF-539
T47D = test system: T47D
SF-295 = test system: SF-295
OVCAR-8 = test system: OVCAR-8
HOP-92 = test system: HOP-92
EKVX = test system: EKVX
RPMI-8226 = test system: RPMI-8226
SF-268 = test system: SF-268
NCI-H23 = test system: NCI-H23
NCI-H460 = test system: NCI-H460
M14 = test system: M14
Malme-3M = test system: Malme-3M

Compound | GI50 (ACHN) | GI50 (DU-145) | GI50 (HCT-15) [µM] | GI50 (CCRF-CEM) | GI50 (CAKI-1) | GI50 (HL-60) | GI50 (OVCAR-5) | GI50 (SF-539) | GI50 (T47D) | GI50 (SF-295) | GI50 (OVCAR-8) | GI50 (HOP-92) | GI50 (EKVX) | GI50 (RPMI-8226) | GI50 (SF-268) | GI50 (NCI-H23) | GI50 (NCI-H460) | GI50 (M14) | GI50 (Malme-3M)
N#Cc1c(N)[nH]c2ccc(Sc3ccccc3)cc12 | 0.284 µM (active) | 0.721 µM (active) | 0.098 | 0.151 µM (active) | 0.216 µM (active) | 0.0333 µM (active) | 0.964 µM (active) | 0.234 µM (active) | 0.622 µM (active) | 0.23 µM (active) | 0.358 µM (active) | 1.78 µM (inactive) | 0.659 µM (active) | 0.361 µM (active) | 0.248 µM (active) | 0.323 µM (active) | 0.201 µM (active) | 0.0828 µM (active) | –
Cc1cc2c(O)nc(N)nc2nc1C | > 100 µM (inactive) | > 100 µM (inactive) | > 100 | > 100 µM (inactive) | > 100 µM (inactive) | > 100 µM (inactive) | > 100 µM (inactive) | – | > 100 µM (inactive) | > 100 µM (inactive) | > 100 µM (inactive) | > 100 µM (inactive) | > 100 µM (inactive) | > 100 µM (inactive) | > 100 µM (inactive) | > 100 µM (inactive) | > 100 µM (inactive) | > 100 µM (inactive) | > 100 µM (inactive)
CNC(=O)OCc1c(COC(=O)NC)c(C)n(-c2ccc(Br)cc2)c1C | 3.26 µM (inactive) | 14.3 µM (inactive) | 14 | 4.85 µM (inactive) | 4.02 µM (inactive) | 6.25 µM (inactive) | 12.9 µM (inactive) | 15.4 µM (inactive) | 10.2 µM (inactive) | 13.1 µM (inactive) | 12.1 µM (inactive) | 7.76 µM (inactive) | 27.3 µM (inactive) | 11 µM (inactive) | 10.7 µM (inactive) | 14.3 µM (inactive) | 8.2 µM (inactive) | 13.2 µM (inactive) | 17.6 µM (inactive)
CC(C)Oc1ccc2c(c1)OCC1Cc3ccccc3OC21 (configuration not stated) | – | > 100 µM (inactive) | 18.3 | > 100 µM (inactive) | > 100 µM (inactive) | > 100 µM (inactive) | > 100 µM (inactive) | > 100 µM (inactive) | 55.2 µM (inactive) | 63.2 µM (inactive) | > 100 µM (inactive) | > 100 µM (inactive) | 75.9 µM (inactive) | 52.8 µM (inactive) | > 100 µM (inactive) | 89.9 µM (inactive) | – | > 100 µM (inactive) | > 100 µM (inactive)
CCOC(=O)c1nc2cc(F)c(F)cc2nc1NCc1cc(OC)c(OC)c(OC)c1 | > 100 µM (inactive) | > 100 µM (inactive) | > 100 | > 100 µM (inactive) | > 100 µM (inactive) | > 100 µM (inactive) | 54.2 µM (inactive) | > 100 µM (inactive) | > 100 µM (inactive) | > 100 µM (inactive) | > 100 µM (inactive) | 50.7 µM (inactive) | > 100 µM (inactive) | – | > 100 µM (inactive) | > 100 µM (inactive) | > 100 µM (inactive) | > 100 µM (inactive) | > 100 µM (inactive)
Cc1ccc(N2C(=O)C3c4[nH]c5ccccc5c4C4CCC(C(C)(C)C)CC4C3C2=O)cc1 (configuration not stated) | 6.64 µM (inactive) | 2.48 µM (inactive) | 34.6 | 5.36 µM (inactive) | 10.2 µM (inactive) | 7.62 µM (inactive) | 14.1 µM (inactive) | – | 15.6 µM (inactive) | 8.15 µM (inactive) | 7.71 µM (inactive) | 15.1 µM (inactive) | 13.6 µM (inactive) | 8.85 µM (inactive) | 6.78 µM (inactive) | 15.1 µM (inactive) | 6.46 µM (inactive) | 13.6 µM (inactive) | 6.9 µM (inactive)
OC(CCN1CCN(CCOC(c2ccccc2)c2ccccc2)CC1)c1ccc(Br)cc1 (configuration not stated) | 10.8 µM (inactive) | 16 µM (inactive) | 6.43 | 12.7 µM (inactive) | 12.2 µM (inactive) | 10.1 µM (inactive) | 14.9 µM (inactive) | 12.5 µM (inactive) | 10.4 µM (inactive) | 15.6 µM (inactive) | 6.25 µM (inactive) | 10.7 µM (inactive) | 11 µM (inactive) | – | 14.8 µM (inactive) | 14 µM (inactive) | 8.11 µM (inactive) | 3.27 µM (inactive) | 11.7 µM (inactive)
Cn1c(=O)c2c(nc3sc4ccccc4c(=O)n32)n(C)c1=O | > 100 µM (inactive) | > 100 µM (inactive) | > 100 | – | > 100 µM (inactive) | > 100 µM (inactive) | > 100 µM (inactive) | > 100 µM (inactive) | > 100 µM (inactive) | > 100 µM (inactive) | > 100 µM (inactive) | > 100 µM (inactive) | > 100 µM (inactive) | > 100 µM (inactive) | > 100 µM (inactive) | > 100 µM (inactive) | > 100 µM (inactive) | > 100 µM (inactive) | –
O=C1NC(N2CCOCC2)=N/C1=C\c1cccs1 | > 100 µM (inactive) | > 100 µM (inactive) | > 100 | > 100 µM (inactive) | > 100 µM (inactive) | > 100 µM (inactive) | > 100 µM (inactive) | > 100 µM (inactive) | > 100 µM (inactive) | > 100 µM (inactive) | > 100 µM (inactive) | > 100 µM (inactive) | > 100 µM (inactive) | > 100 µM (inactive) | > 100 µM (inactive) | > 100 µM (inactive) | – | > 100 µM (inactive) | > 100 µM (inactive)
CCCC[S+]([O-])CCC(N)P(=O)(O)O (configuration not stated) | > 100 µM (inactive) | > 100 µM (inactive) | > 100 | > 100 µM (inactive) | > 100 µM (inactive) | > 100 µM (inactive) | > 100 µM (inactive) | – | > 100 µM (inactive) | > 100 µM (inactive) | > 100 µM (inactive) | > 100 µM (inactive) | > 100 µM (inactive) | > 100 µM (inactive) | > 100 µM (inactive) | > 100 µM (inactive) | > 100 µM (inactive) | > 100 µM (inactive) | > 100 µM (inactive)
CC(=O)/C(=C\Nc1c(C)n(C)n(C)c1=O)C(=O)c1ccccc1 | > 50 µM (inactive) | > 50 µM (inactive) | > 50 | > 50 µM (inactive) | > 50 µM (inactive) | > 50 µM (inactive) | > 50 µM (inactive) | > 50 µM (inactive) | > 50 µM (inactive) | > 50 µM (inactive) | – | 26.5 µM (inactive) | > 50 µM (inactive) | > 50 µM (inactive) | > 50 µM (inactive) | > 50 µM (inactive) | > 50 µM (inactive) | > 50 µM (inactive) | > 50 µM (inactive)
CC[C@@]1(O)C(=O)OCc2c1cc1n(c2=O)Cc2c-1nc1ccccc1c2/C=N\NC(=O)C1CCCN1 (some centres not stated) | 0.0283 µM (active) | 0.133 µM (active) | 1.31 | – | 0.254 µM (active) | 0.046 µM (active) | 4.93 µM (inactive) | < 0.01 µM (active) | 0.0135 µM (active) | 0.386 µM (active) | 0.258 µM (active) | 0.601 µM (active) | 9.55 µM (inactive) | 0.818 µM (active) | < 0.0225 µM (active) | 0.0509 µM (active) | 0.266 µM (active) | 0.147 µM (active) | 1.79 µM (inactive)
Nc1nc(=S)n(-c2ccc(Cl)cc2)c2nc3ccccc3cc12 | 18.8 µM (inactive) | 43.6 µM (inactive) | 39.9 | 42.4 µM (inactive) | 30.1 µM (inactive) | > 100 µM (inactive) | 83.2 µM (inactive) | – | 18.7 µM (inactive) | 64.6 µM (inactive) | 50.1 µM (inactive) | 9.82 µM (inactive) | 15.3 µM (inactive) | 59.6 µM (inactive) | 36.2 µM (inactive) | 56.9 µM (inactive) | 46.2 µM (inactive) | 84.9 µM (inactive) | 32.5 µM (inactive)
C=CC1CN(C(=O)OCC)N(C(=O)OCC)C1CCc1ccccc1 (configuration not stated) | > 100 µM (inactive) | > 100 µM (inactive) | 65.5 | 72.4 µM (inactive) | > 100 µM (inactive) | 35.6 µM (inactive) | > 100 µM (inactive) | – | 33.3 µM (inactive) | 58.6 µM (inactive) | > 100 µM (inactive) | 53.5 µM (inactive) | 72.4 µM (inactive) | 30.9 µM (inactive) | > 100 µM (inactive) | 61.9 µM (inactive) | 74.1 µM (inactive) | > 100 µM (inactive) | > 100 µM (inactive)
O=C(O)/C=C/c1c2ccc(=O)c(O)c-2oc2c(O)c(O)ccc12 | 30.8 µM (inactive) | > 100 µM (inactive) | 61.9 | 9.59 µM (inactive) | > 100 µM (inactive) | 82.2 µM (inactive) | 78.2 µM (inactive) | – | > 100 µM (inactive) | 24.4 µM (inactive) | 40.1 µM (inactive) | > 100 µM (inactive) | 24.9 µM (inactive) | 23.2 µM (inactive) | > 100 µM (inactive) | > 100 µM (inactive) | > 100 µM (inactive) | 47.4 µM (inactive) | > 100 µM (inactive)
CN(C)C(=S)S [SODIUM DIMETHYLCARBAMODITHIOATE] | > 71 µM (inactive) | > 95.7 µM (inactive) | > 76 | – | 63.1 µM (inactive) | 1.33 µM (inactive) | > 100 µM (inactive) | > 100 µM (inactive) | > 100 µM (inactive) | > 80.2 µM (inactive) | > 52.5 µM (inactive) | > 100 µM (inactive) | > 94.6 µM (inactive) | 17.5 µM (inactive) | > 100 µM (inactive) | > 50.8 µM (inactive) | 4.68 µM (inactive) | > 100 µM (inactive) | > 43.8 µM (inactive)
